The test system of data set [1] is Plasma. As to the kind of experiment: (§1) Fraction unbound (%) in human plasma at 10 uM by LC/MS-MS analysis. Conditions: 10 µM. The data set is classed as ADME, cell-free.
The nature of data set [2]: Equilibrium solubility of the compound in phosphate buffer by LC-MS analysis.
The conditions of data set [3]: octanol/water, pH 7.4.
Description: (§2) Partition coefficient, log D of the compound at pH 7.4 by shake flask method
Data set [4] can be described thus: Inhibition of Escherichia coli switch region of RNA polymerase after 1 hr by transcription-coupled translation assay.
Data set [5] has as its system Haemophilus influenzae. Description: Antibacterial activity against Haemophilus influenzae acrB by broth microdilution method. The format is functional. In general terms: Dilution methods test growth across graded concentrations, often in twofold steps.
Data set [6] can be described thus: as §1. The format is ADME, cell-free.
A short description of data set [7]: physchem. Conditions: octanol/water, pH 7.4.
Description: as §2

Molecules are shown by their SMILES. In brackets after ≈: the same amount, converted by molar mass.

By solubility (thermodynamic) is commonly meant the concentration in solution at equilibrium with solid. Usually logD stands for the decadic logarithm of the distribution of all forms, ionised or not, between an organic phase and buffer at a given pH. The low end stands for lower lipophilicity, the high end for higher lipophilicity. The IC50 is the midpoint of a concentration-inhibition curve. Consider `Cc1noc(C)c1C(=O)Nc1c(N2CCC(Cc3ccccc3)CC2)c(=O)c1=O`, for which the Fu in data set [1] is below 1%. The thermodynamic solubility in data set [2] was determined as 508 µM (≈ 200 µg/mL). Besides, in data set [3], the logD is 1.7. Moreover, the IC50 in data set [4] was above 100000 nM.

Compound `Cc1noc(C)c1S(=O)(=O)Nc1c(N2CCC(c3ccccc3)CC2)c(=O)c1=O` gave a Fu in data set [1] below 1%. The same compound gave a thermodynamic solubility in data set [2] of 763 µM (≈ 317 µg/mL). Moreover, the log distribution coefficient (logD) in data set [3] is listed as -0.6. The compound also had an IC50 in data set [4] of 26000 nM.

In turn, `CCCC/C(C)=C/C=C(\C)C(=O)c1c(O)cc(C(C)CC/C=C/NC(=O)OC)oc1=O` (racemic) came in with a Fu in data set [1] below 1%. This compound also showed a solubility (thermodynamic) in data set [2] of 679 µM (≈ 293 µg/mL). Also, in data set [3], the logD is listed as -0.3. The same compound had an IC50 in data set [4] of 1000 nM.

As for `Cc1noc(C)c1S(=O)(=O)Nc1c(N2CCC(NCc3ccc(F)cc3)CC2)c(=O)c1=O`, the Fu in data set [1] stood at 26%. This compound came in with a thermodynamic solubility in data set [2] of 52 µM (≈ 24.1 µg/mL). The compound further displayed a logD in data set [3] of 0. Also, the MIC in data set [5] was above 200 µM. This compound showed an IC50 in data set [4] of 2700 nM.

`Cc1nn(C(F)F)cc1S(=O)(=O)Nc1c(N2CCC(Cc3ccccc3)CC2)c(=O)c1=O` displayed a Fu in data set [1] below 1%. Moreover, the thermodynamic solubility in data set [2] is above 1000 µM. For the same compound, the logD in data set [3] is recorded as -0.1. In addition, the MIC in data set [5] amounted to 100 µM (≈ 46.4 µg/mL). In data set [4], this compound gave an IC50 of 7900 nM.

In data set [1], `CO[C@H]1/C=C/O[C@@]2(C)Oc3c(C)c(O)c4c(O)c(c(/C=N/N5CCN(C)CC5)c(O)c4c3C2=O)NC(=O)/C(C)=C\C=C\[C@H](C)[C@H](O)[C@@H](C)[C@@H](O)[C@@H](C)[C@H](OC(C)=O)[C@@H]1C` [RIFAMPIN] registered a Fu of 16.5%. Also, the thermodynamic solubility in data set [2] turned out to be 751 µM (≈ 618 µg/mL). The logD in data set [3] turned out to be 1.3. Besides, in data set [5], the MIC was found to be 0.025 µM (≈ 0.0206 µg/mL).

Turning to `Cc1noc(C)c1S(=O)(=O)Nc1c(N2CCC(N(C)CC3CCCCC3)CC2)c(=O)c1=O`, the Fu in data set [1] was determined as 38%. Further, the thermodynamic solubility in data set [2] came to 12.2 µM (≈ 5.67 µg/mL). In data set [3], this compound came in with a logD of -0.4. The compound also yielded a half-inhibitory concentration (IC50) in data set [4] above 100000 nM.

Compound `Cc1ccc(CC2CCN(c3c(NS(=O)(=O)c4c(C)noc4C)c(=O)c3=O)CC2)cc1` showed a Fu in data set [1] below 1%. In data set [2], the thermodynamic solubility is above 1000 µM. In data set [3], this compound displayed a logD of 0.5. In data set [5], this compound came in with an MIC of 12.5 µM (≈ 5.54 µg/mL). Moreover, inhibition in data set [4] was half-maximal at 290 nM (IC50).

In the case of `Cc1noc(C)c1S(=O)(=O)Nc1c(N2CCN(CCc3ccccc3)CC2)c(=O)c1=O`, the Fu in data set [1] is listed as 4.9%. Moreover, the thermodynamic solubility in data set [2] was 560 µM (≈ 249 µg/mL). The logD in data set [3] is -0.4. The compound further came in with an IC50 in data set [4] of 43000 nM.

In data set [1], `Cc1noc(C)c1S(=O)(=O)Nc1c(N2CCCC(Cc3ccccc3)C2)c(=O)c1=O` (centres undefined) showed a Fu below 1%. In data set [2], the thermodynamic solubility amounted to 985 µM (≈ 423 µg/mL). In data set [3], this compound registered a logD of -0.3. Besides, in data set [4], the IC50 is 71000 nM.

In turn, `O=c1c(NS(=O)(=O)c2ccccc2)c(N2CCC(Cc3ccccc3)CC2)c1=O` gave a Fu in data set [1] below 1%. Moreover, in data set [2], the solubility (thermodynamic) is above 1000 µM. The same compound gave a logD in data set [3] of 0.2. The MIC in data set [5] amounted to 200 µM (≈ 82.1 µg/mL). The compound further showed an IC50 in data set [4] of 2100 nM.

For the compound `COc1ccc(CN2CCN(c3c(NS(=O)(=O)c4c(C)noc4C)c(=O)c3=O)CC2)cc1`, in data set [1], the Fu amounted to 1.8%. In data set [2], the thermodynamic solubility is 497 µM (≈ 229 µg/mL). Besides, the logD in data set [3] was -0.9. The MIC in data set [5] was above 200 µM. The IC50 in data set [4] was determined as 3000 nM.

In turn, `Cc1noc(C)c1S(=O)(=O)Nc1c(N2CCC(N(C)Cc3ccc(OC(F)F)cc3)CC2)c(=O)c1=O` registered an MIC in data set [5] of 50 µM (≈ 26.2 µg/mL). In data set [4], this compound had a half-maximal inhibitory concentration (IC50) of 430 nM.

As for `Cc1noc(C)c1S(=O)(=O)Nc1c(N2CCN(Cc3ccc(C#N)cc3)CC2)c(=O)c1=O`, the Fu in data set [1] worked out at 2.9%. This compound also registered a thermodynamic solubility in data set [2] above 1000 µM. Besides, the logD in data set [3] is recorded as -1.3. In data set [5], this compound gave an MIC of 200 µM (≈ 91.1 µg/mL). The compound further had an IC50 in data set [4] of 1500 nM.

The compound `CC(=O)NC[C@H]1CN(c2ccc(N3CCOCC3)c(F)c2)C(=O)O1` [LINEZOLID] displayed an MIC in data set [5] of 12.5 µM (≈ 4.22 µg/mL).

In turn, `Cc1noc(C)c1S(=O)(=O)Nc1c(N2CCC(CCc3ccccc3)CC2)c(=O)c1=O` gave a Fu in data set [1] below 1%. In data set [2], this compound returned a solubility (thermodynamic) of 636 µM (≈ 282 µg/mL). The logD in data set [3] stood at 0. Further, in data set [4], the IC50 is 320 nM.

`Cc1noc(C)c1S(=O)(=O)Nc1c(N2CCC(N(C)Cc3ccc(Cl)cc3)CC2)c(=O)c1=O` showed a Fu in data set [1] of 3.8%. The compound also came in with a thermodynamic solubility in data set [2] above 1000 µM. The logD in data set [3] is on record as 0.5. Besides, in data set [5], the MIC was found to be 50 µM (≈ 24.6 µg/mL). Further, the IC50 in data set [4] amounted to 330 nM.

As usually defined, the fraction unbound is free concentration divided by total concentration. For the compound `Cc1noc(C)c1S(=O)(=O)Nc1c(N2CCC(Cc3ccccc3)CC2)c(=O)c1=O`, in data set [6], the free fraction (fraction unbound) at 10 µM is below 0.01. Further, in data set [2], the thermodynamic solubility is above 1000 µM. This compound registered an MIC in data set [5] of 200 µM (≈ 85.9 µg/mL). The compound further showed an IC50 in data set [4] of 280 nM. In data set [7], this compound yielded a logD of 0.1.

Compound `Cc1noc(C)c1S(=O)(=O)Nc1c(N2CCC(C)CC2)c(=O)c1=O` had a Fu in data set [1] of 1.6%. The compound further gave a thermodynamic solubility in data set [2] of 773 µM (≈ 273 µg/mL). The compound further displayed a logD in data set [3] of -1. This compound had an IC50 in data set [4] above 100000 nM.

Turning to `Cc1noc(C)c1S(=O)(=O)Nc1c(N2CCC(NCc3ccc(C(F)(F)F)cc3)CC2)c(=O)c1=O`, the Fu in data set [1] is recorded as 6.6%. In addition, the solubility (thermodynamic) in data set [2] was above 1000 µM. In addition, in data set [3], the logD was determined as 0.8. Further, the MIC in data set [5] was determined as 25 µM (≈ 12.8 µg/mL). In data set [4], this compound yielded a 50% inhibitory concentration (IC50) of 290 nM.

The record behind these values is ChEMBL document CHEMBL3425489, “X-ray crystal structures of Escherichia coli RNA polymerase with switch region binding inhibitors enable rational design of squaramides with an improved fraction unbound to human plasma protein” (J Med Chem, 2015).
